Holding throughout (assay type): cell-based
The test system of one data set is lung cancer cells (A549). Description: MTT assay, lung cancer cells (A549). The conditions noted are these: A549, 0.625 μM to 10 µM, 24 hours. As for the experimental part: (§1) Cell proliferation was evaluated through MTT analysis. SJCRH30 and CCD-18Co cells were seeded in triplicate in 96-well plates at a density of 2×10^4 cells per well. After 24 hours, each FDA-approved drug was diluted in fetal bovine serum (FBS)-free medium and the cells were treated therewith. After 24 hours of incubation, the medium was replaced with MTT solution (0.5 mg/mL) and the plates were incubated at 37° C. under 5% CO2. After 60 minutes of incubation, the supernatants were removed and 50 μL of DMSO was added to each well. The optical density in each well was measured at 570 nm using a microplate reader (VersaMax, Molecular Devices, USA).
(§2) MTT assay was performed by treating colorectal cancer cells (HCT-116), pancreatic cancer cells (PANC-1), lung cancer cells (A549), and breast cancer cells (MDA-MB-231) with each of ivacaftor and adapalene and treating colorectal cancer cells (HCT-116), pancreatic cancer cells (PANC-1), and lung cancer cells (A549) with dutasteride. The cells were treated with each of the three drugs at concentrations of 0.625 μM, 1.25 μM, 2.5 μM, 5 μM, and 10 µM for 24 hours and then observed.
Background: Tetrazolium assays rely on reduction of a dye to a coloured formazan, in cell work by metabolically active cells.

Data set [1] concerns SJCRH30 human alveolar rhabdomyosarcoma cells. Description: MTT assay, proliferation of rhabdomyosarcoma cells (SJCRH30). Conditions: for IC50: Homo sapiens, Rhabdomyosarcoma cell, SJCRH30, 24 hours, MTT, read-out: IC50 (half maximal inhibitory concentration); for cell proliferation (MTT): SJCRH30, 5 μM and 10 μM; for cell killing effect (MTT): SJCRH30, 10 μM. As for the experimental part: (§3) SJCRH30 human alveolar rhabdomyosarcoma cells were purchased from ATCC. Cells were cultured in RPMI1640 supplemented with 10% fetal bovine serum (FBS), 1% penicillin, and streptomycin. CCD-18Co human colon fibroblasts were purchased from the Korea Cell Line Bank. Cells were cultured in DMEM supplemented with 10% fetal bovine serum (FBS), 1% penicillin, and streptomycin. All cells were cultured in an incubator at 37° C. under 5% CO2.
as §1
MTT assay was performed to evaluate the effects of FDA-approved drugs on the proliferation of rhabdomyosarcoma cells (SJCRH30). Rhabdomyosarcoma cells were treated with each of 18 drugs at concentrations of 5 μM and 10 μM, respectively, and observed after 24 hours.
(§4) Rhabdomyosarcoma cells (SJCRH30) and colon fibroblasts (CCD-18Co) were treated with ivacaftor at concentrations of 0.625 μM, 1.25 μM, 2.5 μM, 5 μM, and 10 µM and compared.
MTT assay was performed to compare IC50 (half maximal inhibitory concentration) values of pazopanib HCl, which is used for soft tissue sarcoma patients, and ivacaftor, against rhabdomyosarcoma cells (SJCRH30). Rhabdomyosarcoma cells were treated with each of pazopanib HCl and ivacaftor at concentrations of 0.625 μM, 1.25 μM, 2.5 μM, 5 μM, 10 µM, 20 μM, 40 μM, and 60 µM for 24 hours and then observed.

The test system of data set [2] is breast cancer cells (MDA-MB-231). Description: MTT assay, breast cancer cells (MDA-MB-231). Conditions: MDA-MB-231, 0.625 μM to 10 µM, 24 hours. As for the experimental part: as §1, §2
Data set [3] deals with CCD-18Co human colon fibroblasts. The experiment in a line: MTT assay, toxicity to normal cells (CCD-18Co). The conditions noted are these: 0.625 μM to 10 µM, all concentrations, 24 hours. As for the experimental part:
as §3, §1, §4

Data set [4] has as its system pancreatic cancer cells (PANC-1). Description: MTT assay, pancreatic cancer cells (PANC-1). Conditions: PANC-1, 0.625 μM to 10 µM, 24 hours. As for the experimental part: as §1, §2
For data set [5], the system named is colorectal cancer cells (HCT-116). The experiment in a line: MTT assay, colorectal cancer cells (HCT-116). The conditions noted are these: HCT-116, 0.625 μM to 10 µM, 24 hours. As for the experimental part:
as §1, §2

“Also recorded” adds a separate entry of the source. Counter-ions that a name gives are not always drawn.

For the compound `CC(C)(C)c1cc(C(C)(C)C)c(NC(=O)c2c[nH]c3ccccc3c2=O)cc1O` [ivacaftor], the “cell proliferation (MTT)” value with lung cancer cells (A549) was “significant decrease in cell proliferation”; in data set [1] (24 hours), “significant decrease in cell proliferation; also recorded: highest effect on cell proliferation reduction”; in data set [2], “significant decrease in cell proliferation”; in data set [4], “significant decrease in cell proliferation”. Moreover, in data set [1], the IC50 is 5.11 µM. The “cell killing effect (MTT)” value in data set [1] (24 hours) is on record as “significant cell killing effect”. The “cell number (MTT)” value in data set [1] (SJCRH30, at 1.25 μM, 2.5 μM, 5 μM and 10 μM, 24 hours) is reported as “significant decrease in the cell number”. Also, in data set [3], the “cell number (MTT), toxicity to normal cells” value was “no significant decrease in the cell number”.
Take `C[C@@H](O[C@H]1OCCN(Cc2n[nH]c(=O)[nH]2)[C@H]1c1ccc(F)cc1)c1cc(C(F)(F)F)cc(C(F)(F)F)c1` [aprepitant]: in data set [1] (24 hours), the “cell proliferation (MTT)” value is reported as “significant decrease in cell proliferation” and the “cell killing effect (MTT)” value is “significant cell killing effect”.
Turning to `Cc1ccc(Nc2nccc(N(C)c3ccc4c(C)n(C)nc4c3)n2)cc1S(N)(=O)=O` [pazopanib HCl], the IC50 in data set [1] is 40.9 µM.
In the case of `C[C@]12C=CC(=O)N[C@@H]1CC[C@@H]1[C@@H]2CC[C@]2(C)[C@@H](C(=O)Nc3cc(C(F)(F)F)ccc3C(F)(F)F)CC[C@@H]12` [dutasteride], the “cell proliferation (MTT)” value was “decrease in cell proliferation” in data set [5], “decrease in cell proliferation” with lung cancer cells (A549), “significant decrease in cell proliferation” in data set [1] (24 hours) and “decrease in cell proliferation” in data set [4]. The “cell killing effect (MTT)” value in data set [1] (24 hours) is “significant cell killing effect”.
For the compound `COc1ccc(-c2ccc3cc(C(=O)O)ccc3c2)cc1C12CC3CC(CC(C3)C1)C2` [adapalene], the “cell proliferation (MTT)” value (in data set [5]; in the data set with lung cancer cells (A549); in data set [1] (24 hours); in data set [2]; in data set [4]) was “significant decrease in cell proliferation” in each case. In addition, the “cell killing effect (MTT)” value in data set [1] (24 hours) is on record as “significant cell killing effect”.

The record behind these values is patent US20240316066A1, “COMPOSITION COMPRISING PIP4K2C INHIBITOR AS ACTIVE INGREDIENT FOR TREATMENT OF CANCER” (GWANGJU INSTITUTE OF SCIENCE AND TECHNOLOGY, priority 2021, published 2024).
